From US10532085B2, “Methods for increasing intracellular activity of Hsp70” (Orphazyme A/S, priority 2010, dated 2020)

Legend:
[1] = test system: primary fibroblasts from Mucopolysaccharidosis type IIIA patients; assay: Volume of Acidic Compartment (VAC) by FACS, MPS IIIA fibroblasts; assay type: cell-based, human; settings: added for 48 h, MPSIIIA GM00879
Procedure: (§1) FIG. 10: Test of rhHSP70 in non-sphingolipidosis. rhHSP70 was added for 48 h to primary fibroblasts from Sandhoff Disease and Mucopolysaccharidosis type IIIA (aka Sanfilippo type IIIA) patients (Coriell Cell Repository ID: Sandhoff: GM11098, MPSIIIA: GM00879). Ctrl=Normal Control fibroblasts. Read-out: Volume of Acidic Compartment (VAC) (Primary cellular pathology), performed by FACS.

[2] = test system: primary fibroblasts from Sandhoff Disease patients; assay: Volume of Acidic Compartment (VAC) by FACS, Sandhoff fibroblasts; assay type: cell-based, human; settings: added for 48 h, Sandhoff GM11098
Procedure: as §1

[3] = molecular target: T1, ASM (Mus musculus, UniProt Q04519); assay: ASM activity in WT-MEFs; assay type: cell-based, murine; settings: 300 nM (cytoprotective concentration)
T1 construct: endogenous in cells; host or cells: immortalized wild-type murine embryonic fibroblasts (WT-MEFs)
T1 sequence (Q04519 45-627): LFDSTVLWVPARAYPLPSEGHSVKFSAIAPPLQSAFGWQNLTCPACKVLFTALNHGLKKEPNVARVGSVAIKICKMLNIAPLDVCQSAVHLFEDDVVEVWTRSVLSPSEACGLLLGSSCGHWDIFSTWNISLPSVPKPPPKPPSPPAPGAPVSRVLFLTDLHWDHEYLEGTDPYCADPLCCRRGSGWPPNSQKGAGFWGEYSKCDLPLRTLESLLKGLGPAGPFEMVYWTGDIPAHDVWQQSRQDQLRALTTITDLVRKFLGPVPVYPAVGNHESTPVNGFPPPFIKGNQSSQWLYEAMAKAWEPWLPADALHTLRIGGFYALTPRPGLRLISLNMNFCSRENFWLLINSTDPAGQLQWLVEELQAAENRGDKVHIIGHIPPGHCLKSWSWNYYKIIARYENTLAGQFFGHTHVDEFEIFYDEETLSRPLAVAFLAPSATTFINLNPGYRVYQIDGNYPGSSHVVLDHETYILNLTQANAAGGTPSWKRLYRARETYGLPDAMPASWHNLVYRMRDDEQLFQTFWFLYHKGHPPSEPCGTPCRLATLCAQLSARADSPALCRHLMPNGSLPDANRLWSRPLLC
Excerpt: BMP binds ASM with high affinity and stimulates its ability to hydrolyze sphingomyelin to ceramide and phosphorylcholine. […] In order to test whether ASM is responsible for the lysosome stabilizing effect we treated the cells with desipramine, a well characterized pharmacological ASM inhibitor. […] It should be noted that akin to rHsp70, also rASM localized to the lysosomes.
WT- and Hsp70-MEFs were generated, immortalized and maintained as described in the art. Human NPDA fibroblasts (83/24) originate from a skin biopsy of a patient with hepatosplenomegaly. […] The photo-oxidation-induced loss of the lysosomal pH-gradient and leakage of acridine orange to the cytosol from individual lysosomes was quantified visually as “loss of red dots” in U2-O—S cells and as a decrease in red and an increase in green fluorescence by Zeiss LSM DUO Software in fibroblasts. The total and cytoplasmic (digitonin-extracted) cathepsin activities were measured in digitonin-treated samples using zFR-AFC (Enzyme System Products) probe as described in the art. The tryptophan fluorescence spectra and liposome 90° light scattering were analyzed in a HEPES buffer (20 mM HEPES, 0.1 mM EDTA, pH as indicated) essentially as described in the art. […] Apoptosis-like cell death and lysosomal membrane permeabilization were analyzed essentially as described in the art. […]

[4] = test system: U-2-OS cells; assay: Lysosomal integrity upon photo-oxidation (acridine orange and blue light); assay type: cell-based, Human
Procedure: FIG. 2: Lysosomal Hsp70 stabilizes lysosomal membranes. (a) Representative confocal images of U-2-OS cells incubated with 300 nM rHsp70-AF488 (green) for 24 h, fixed and stained for lysosomal integral membrane protein-1 (LIMP-1; red). For co-localization with other organelle markers see FIG. 3. (b) U-2-OS cells were incubated with 300 nM rHsp70-AF488 for 24 h before quantification of rHsp70-AF488 in membranes (memb.) and supernatant (sup.) obtained by repeated freeze/thaw cycles and centrifugation the light membrane fraction (LMF). […] (c) Representative still images of U-2-OS cells exposed to photo-oxidation (acridine orange and blue light). The loss of lysosomal integrity is visualized by the loss of red and increase in green staining. (d and e) U-2-OS cells were incubated with indicated recombinant proteins (300 nM) for 24 h, and analyzed for lysosomal integrity upon photo-oxidation. When indicated, cells were treated with indicated siRNAs for 48 h prior to the addition of recombinant proteins (e). The values represent means±SD (standard deviation) for three (d) or five (e) independent experiments. Representative immunoblots of indicated proteins from U-2-OS cells left untreated or treated with control or Hsp70 siRNAs are shown on the right. Scale bars: 20 μm (a and c).
WT- and Hsp70-MEFs were generated, immortalized and maintained as described in the art. Human NPDA fibroblasts (83/24) originate from a skin biopsy of a patient with hepatosplenomegaly. Recombinant proteins were generated using the pET-16b vector system and Ni^2+-affinity-purification (Novagen), and labeled with Alexa Fluor 488 according to manufacturers protocol (Molecular Probes). To analyze the lysosomal integrity, we developed a real time imaging method of cells stained with acridine orange, a metachromatic weak base that accumulates in the acidic compartment of the cells staining them red and sensitizing them to photo-oxidation. The photo-oxidation-induced loss of the lysosomal pH-gradient and leakage of acridine orange to the cytosol from individual lysosomes was quantified visually as “loss of red dots” in U2-O—S cells and as a decrease in red and an increase in green fluorescence by Zeiss LSM DUO Software in fibroblasts. The total and cytoplasmic (digitonin-extracted) cathepsin activities were measured in digitonin-treated samples using zFR-AFC (Enzyme System Products) probe as described in the art. The tryptophan fluorescence spectra and liposome 90° light scattering were analyzed in a HEPES buffer (20 mM HEPES, 0.1 mM EDTA, pH as indicated) essentially as described in the art. Surface plasmon resonance measurements were performed with immobilized LUVs using a BIAcore 2000 system as described in the art. Hsp70 siRNA (5′-[…]-3′) and a […] were transfected with Oligofectamine (Invitrogen). Immunodetection was performed with standard protocols. Apoptosis-like cell death and lysosomal membrane permeabilization were analyzed essentially as described in the art. ASM activity was analyzed by Amplex Red Sphingomyelinase Assay Kit (A12220) from Molecular Probes with modifications described in the art. Statistical analysis was performed using a two-tailed, paired Student's T-test and all groups of data were tested for the comparability of their variances using an F-test.
Sub-confluent cells incubated with 2 μg/ml acridine orange for 15 min at 37° C. were washed, irradiated and analyzed in Hanks balanced salt solution complemented with 3% fetal calf serum. Cells for single cell imaging were selected from 8 pre-defined areas of each well in transmitted light-mode after which the same cells were immediately visualized and exposed to blue light from USH102 100W mercury arc burner (Ushio electric) installed in a U-ULS100HG housing (Olympus) for 20 sec. Fluorescence microscopy was performed on Olympus IX-70 inverted microscope with a LCPlanF1 ×20 objective with NA=0.40. […]

“rHsp70: recombinant (human) heat shock protein 70; in some tests labelled with Alexa Fluor 488” was tested, and the “Volume of Acidic Compartment (VAC)” value [1] was “effectively reverts the lysosomal primary pathology”, the “Volume of Acidic Compartment (VAC)” value [2] was “effectively reverts the lysosomal primary pathology” and the ASM activity [3] was “increased the ASM activity to the level comparable to that in Hsp70-MEFs”. For the same substance, the “protection of lysosomes against photo-oxidation (lysosomal stabilization)” value ([4]; recombinant proteins 300 nM, 24 h) was “protected lysosomes against photo-oxidation” and the “reversal of Hsp70 siRNA-induced sensitization to photo-oxidation” value ([4]; siRNA 48 h prior to addition of recombinant protein (300 nM)) was “fully reverted”.
